According to patent publication US6995188B2 (priority 2002, dated 2006):
Several values for one entry are separate records, joined by “and”; a condition that tells them apart may be missing. Equal values may be shown once.

Key:
[1] = test system: panel of 60 tumor cell lines; type: cell-based, human
[2] = test system: human leukemia cell lines; type: cell-based
[3] = test system: mitochondrial membrane potential; type: cell-based, human
HL-60 cells = type: cell-based, human
NB4 cells = type: cell-based, human
[4] = SGLU1 multiple dose toxicology in vivo; parameters: species or system mice; key to Death: “—” indicates no compound-related finding
Procedure: Further studies were performed to determine the dose-limiting toxicity associated with the administration of repeated doses in groups of mice. Tables 11–16 below describe the results of the multiple-dose toxicology studies for MER-1 and Tables 17–21 describe results of the multiple-dose toxicology of SGLU-1.
The results of the SGLU-1 Multiple Dose I.V. are summarized as follows: Five mice/sex were administered 5 daily intravenous injections of SGLU via the tail vein at doses of 50, 100, 150, 200, 250, 300, and 350 mg/kg/day. All surviving mice were held for 28 days, sacrificed, and designated tissues collected, formalin fixed, and examined.

[5] = pH 5
[6] = 5 daily IV injections, 50–350 mg/kg/day

## C[As](C)SC[C@H](NC(=O)CC[C@H](N)C(=O)O)C(=O)NCC(=O)O [SGLU1, S-(dimethylarsino) glutathione]
[1]
  anticancer activity, NIH panel: showed evidence of activity at low concentrations against a variety of tumor cell lines
[2]
  anti-cancer activity against a panel of human leukemia cell lines: significant anti-cancer activity
[3]
  change of the potential of mitochondrial membrane (CMXRos staining): involves change of the potential of mitochondrial membrane
HL-60 cells
  effect on cell cycle: marked accumulation of cells in S-phase of cell cycle
NB4 cells
  induction of maturation (CD11b expression): do not induce maturation
[4]; 50 mg/kg/day IV daily x5
  Clinical Signs: None.
  Death: —
[4]; 50 mg/kg/day, F
  Kidney: Murine progressive glomerulonephropathy, incidence: 1/5
  Liver: Pyogranuloma, focal, incidence: 1/5
  Lung: Hemorrhage, focal, incidence: 1/5
  Number of animals/dose that tolerated 5 doses: 5/5
[4]; 50 mg/kg/day, Female
  Body Weights Avg.: 25 grams
[4]; 50 mg/kg/day, M
  Liver: Pyogranuloma, focal, incidence: 1/5
  Lung: Atelectasis, incidence: 1/5
  Lung: Pleural adhesion, focal, incidence: 1/5
  Number of animals/dose that tolerated 5 doses: 5/5
[4]; 50 mg/kg/day, Male
  Body Weights Avg.: 25 grams
[4]; 100 mg/kg/day IV daily x5
  Clinical Signs: None.
  Death: —
[4]; 100 mg/kg/day, F
  Kidney: Inflammation, focal, incidence: 2/5
  Liver: Pyogranuloma, focal, incidence: 5/5
  Number of animals/dose that tolerated 5 doses: 5/5
[4]; 100 mg/kg/day, Female
  Body Weights Avg.: 24 grams
[4]; 100 mg/kg/day, M
  Liver: Pyogranuloma, focal, incidence: 1/5
  Number of animals/dose that tolerated 5 doses: 5/5
[4]; 100 mg/kg/day, Male
  Body Weights Avg.: 23 grams
[4]; 150 mg/kg/day IV daily x5
  Clinical Signs: None.
  Death: —
[4]; 150 mg/kg/day, F
  Liver: Inflammation, portal, incidence: 2/5
  Liver: Pyogranuloma, focal, incidence: 3/5
  Number of animals/dose that tolerated 5 doses: 5/5
[4]; 150 mg/kg/day, Female
  Body Weights Avg.: 25 grams
[4]; 150 mg/kg/day, M
  Kidney: Inflammation, focal, incidence: 1/5
  Liver: Pyogranuloma, focal, incidence: 1/5
  Lung: Inflammation, focal, incidence: 1/5
  Number of animals/dose that tolerated 5 doses: 5/5
  Tail: Acute necrosis with vasculitis, thrombosis, and hemorrhage, incidence: 1/5
  Tail: Ulcerative dermatitis, incidence: 1/5
  Testes: Seminiferous tubular degeneration, incidence: 1/5
[4]; 150 mg/kg/day, Male
  Body Weights Avg.: 23 grams
[4]; 200 mg/kg/day IV daily x5
  Clinical Signs: 2 F tail necrosis: amputate
  Death: —
[4]; 200 mg/kg/day, F
  Kidney: Inflammation, focal, incidence: 2/5
  Liver: Hepatocyte hypertrophy: Centrilobular (compatible with SER), incidence: 1/5
  Liver: Increased mitoses, incidence: 1/5
  Liver: Inflammation, portal, incidence: 3/5
  Liver: Pyogranuloma, focal, incidence: 3/5
  Number of animals/dose that tolerated 5 doses: 5/5
  Tail: Acute necrosis with vasculitis, thrombosis, and hemorrhage, incidence: 4/5
  Tail: Ulcerative dermatitis, incidence: 2/5
[4]; 200 mg/kg/day, Female
  Body Weights Avg.: 24 grams
[4]; 200 mg/kg/day, M
  Epididymus: Oligospermia, incidence: 1/5
  Heart: Interstitial fat, increased, incidence: 1/5
  Liver: Ito cell hypertrophy, incidence: 1/5
  Liver: Pyogranuloma, focal, incidence: 2/5
  Number of animals/dose that tolerated 5 doses: 5/5
  Testes: Seminiferous tubular degeneration, incidence: 1/5
[4]; 200 mg/kg/day, Male
  Body Weights Avg.: 24 grams
[4]; 250 mg/kg/day IV daily x5
  Clinical Signs: 2 M tail necr.: amputate
[4]; 250 mg/kg/day, F
  Liver: Focus of Alteration, eosinophilic, incidence: 1/5
  Liver: Hepatocyte hypertrophy: Centrilobular (compatible with SER), incidence: 1/5
  Liver: Inflammation, portal, incidence: 2/5
  Liver: Pyogranuloma, focal, incidence: 1/5
  Lung: Inflammation, focal, incidence: 1/5
  Number of animals/dose that tolerated 4 doses: 1/5
  Number of animals/dose that tolerated 5 doses: 4/5
[4]; 250 mg/kg/day, Female
  Body Weights Avg.: 24 grams
[4]; 250 mg/kg/day, M
  Epididymus: Oligospermia, incidence: 1/5
  Liver: Hepatocyte hypertrophy: Centrilobular (compatible with SER), incidence: 5/5
  Liver: Pyogranuloma, focal, incidence: 3/5
  Number of animals/dose that tolerated 5 doses: 5/5
  Tail: Acute necrosis with vasculitis, thrombosis, and hemorrhage, incidence: 2/5
  Tail: Ulcerative dermatitis, incidence: 1/5
  Testes: Seminiferous tubular degeneration, incidence: 2/5
[4]; 250 mg/kg/day, Male
  Body Weights Avg.: 24 grams
[4]; 300 mg/kg/day IV daily x5
  Clinical Signs: Slight decr. activity and 1 F tail necr.: amputate
[4]; 300 mg/kg/day, F
  Kidney: Congestion, incidence: 1/5
  Liver: Hepatocyte hypertrophy: Centrilobular (compatible with SER), incidence: 2/5
  Liver: Hepatocyte hypertrophy: Panlobular w/eosinophilia, incidence: 1/5
  Liver: Pyogranuloma, focal, incidence: 1/5
  Lung: Atelectasis, incidence: 1/5
  Lung: Congestion, incidence: 3/5
  Lung: Vasculitis, incidence: 1/5
  Number of animals/dose that tolerated 1 dose: 1/5
  Number of animals/dose that tolerated 2 doses: 2/5
  Number of animals/dose that tolerated 5 doses: 2/5
  Tail: Acute necrosis with vasculitis, thrombosis, and hemorrhage, incidence: 1/5
[4]; 300 mg/kg/day, Female
  Body Weights Avg.: 24 grams
[4]; 300 mg/kg/day, M
  Epididymus: Oligospermia, incidence: 2/5
  Heart: Medial hyprtrophy, coronary artery, incidence: 1/5
  Liver: Hepatocyte hypertrophy: Centrilobular (compatible with SER), incidence: 4/5
  Liver: Pyogranuloma, focal, incidence: 2/5
  Lung: Congestion, incidence: 1/5
  Number of animals/dose that tolerated 1 dose: 3/5
  Number of animals/dose that tolerated 5 doses: 2/5
  Tail: Acute necrosis with vasculitis, thrombosis, and hemorrhage, incidence: 1/5
  Tail: Ulcerative dermatitis, incidence: 1/5
  Testes: Seminiferous tubular degeneration, incidence: 2/5
[4]; 300 mg/kg/day, Male
  Body Weights Avg.: 23 grams
[4]; 350 mg/kg/day IV daily x5
  Clinical Signs: Moderate decr. activity and 2 M tail necr.: amputate
[4]; 350 mg/kg/day, F
  Kidney: Murine progressive glomerulonephropathy, incidence: 1/5
  Liver: Hepatocyte hypertrophy: Periportal w/vacuolation, incidence: 2/5
  Liver: Inflammation, portal, incidence: 1/5
  Lung: Congestion, incidence: 2/5
  Lung: Fibrin Thrombi, incidence: 1/5
  Lung: Vasculitis, incidence: 1/5
  Mandibular L. N.: Apoptosis, lymphocyte, incidence: 1/5
  Number of animals/dose that tolerated 1 dose: 4/5
  Number of animals/dose that tolerated 2 doses: 1/5
  Spleen: Congestion, incidence: 5/5
  Thymus: Apoptosis, increased, incidence: 5/5
[4]; 350 mg/kg/day, Female
  Body Weights Avg.: 24 grams
[4]; 350 mg/kg/day, M
  Bone Marrow: Myeloid hyperplasia, incidence: 1/5
  Epididymus: Oligospermia, incidence: 5/5
  Kidney: Congestion, incidence: 1/5
  Kidney: Inflammation, focal, incidence: 1/5
  Liver: Hepatocyte hypertrophy: Centrilobular (compatible with SER), incidence: 1/5
  Liver: Increased mitoses, incidence: 1/5
  Liver: Pyogranuloma, focal, incidence: 2/5
  Lung: Fibrin Thrombi, incidence: 1/5
  Lung: Hemorrhage, focal, incidence: 2/5
  Number of animals/dose that tolerated 1 dose: 3/5
  Number of animals/dose that tolerated 5 doses: 2/5
  Spleen: Congestion, incidence: 2/5
  Spleen: Extramedullary hematopoiesis, increased, incidence: 1/5
  Tail: Acute necrosis with vasculitis, thrombosis, and hemorrhage, incidence: 1/5
  Testes: Seminiferous tubular degeneration, incidence: 5/5
  Thymus: Apoptosis, increased, incidence: 2/5
[4]; 350 mg/kg/day, Male
  Body Weights Avg.: 20 grams
[4]; [6]
  deaths (summary): Deaths occurred at 250, 300, and 350 mg/kg/day with female mice being more susceptible than males
  microscopic observations (summary): compound-related lesions in lung, liver, thymus, and testes
[4]; 5 daily IV injections, F, 50 mg/kg/day
  Deaths, number of animals/dose: 0/5
[4]; 5 daily IV injections, F, 150 mg/kg/day
  Deaths, number of animals/dose: 0/5
[4]; 5 daily IV injections, F, 200 mg/kg/day
  Deaths, number of animals/dose: 0/5
[4]; 5 daily IV injections, F, 250 mg/kg/day
  Deaths, number of animals/dose: 1/5
[4]; 5 daily IV injections, F, 300 mg/kg/day
  Deaths, number of animals/dose: 3/5
[4]; 5 daily IV injections, F, 350 mg/kg/day
  Deaths, number of animals/dose: 5/5
[4]; 5 daily IV injections, M, 50 mg/kg/day
  Deaths, number of animals/dose: 0/5
[4]; 5 daily IV injections, M, 100 mg/kg/day
  Deaths, number of animals/dose: 0/5
[4]; 5 daily IV injections, M, 150 mg/kg/day
  Deaths, number of animals/dose: 0/5
[4]; 5 daily IV injections, M, 200 mg/kg/day
  Deaths, number of animals/dose: 0/5
[4]; 5 daily IV injections, M, 250 mg/kg/day
  Deaths, number of animals/dose: 0/5
[4]; 5 daily IV injections, M, 300 mg/kg/day
  Deaths, number of animals/dose: 1/5
[4]; 5 daily IV injections, M, 350 mg/kg/day
  Deaths, number of animals/dose: 3/5
[4]; 5 daily IV injections, female mice
  no-observable-effect level: 150 mg/kg
[4]; 5 daily IV injections, female mice, 200 mg/kg/day
  centrilobular hypertrophy of hepatocytes, incidence: 1/5
[4]; 5 daily IV injections, male mice
  no-observable-effect level (NOEL): 100 mg/kg/day
[4]; 5 daily IV injections, males, 150 mg/kg/day
  testicular seminiferous tubular degeneration, incidence: 1/5
[5]
  loss: Less than 10%
